From ChEMBL document CHEMBL1201862, “PubChem BioAssay data set” (2004)
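Dose response: 5 concentrations. Exposure: 48 h. Format: 96-well plates. Endpoint: linear interpolation; highest concentration if not reached. GI50 is the concentration that inhibits growth by half.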 The source made the active and inactive calls. Cut-off read from the data, not from the text of the source: active = GI50 up to about 1.1 µM and inactive = higher.

How the values were obtained:
Assay in all cases: inhibition of tumour cell growth, NCI panel, 48 h
UACC-62 = tested on: UACC-62
NCI-H23 = tested on: NCI-H23
CCRF-CEM = tested on: CCRF-CEM
SK-MEL-28 = tested on: SK-MEL-28
LXFL 529 = tested on: LXFL 529
RXF 393 = tested on: RXF 393
A549 = tested on: A549
SNB-19 = tested on: SNB-19
NCI-H226 = tested on: NCI-H226
SR = tested on: SR
COLO 205 = tested on: COLO 205
M14 = tested on: M14
KM12 = tested on: KM12
SK-MEL-2 = tested on: SK-MEL-2
SF-295 = tested on: SF-295
TK-10 = tested on: TK-10
SNB-75 = tested on: SNB-75
IGROV-1 = tested on: IGROV-1
U-251 = tested on: U-251
SN12C = tested on: SN12C
HOP-62 = tested on: HOP-62
UO-31 = tested on: UO-31
OVCAR-8 = tested on: OVCAR-8
NCI-H460 = tested on: NCI-H460
EKVX = tested on: EKVX
SF-539 = tested on: SF-539
HOP-92 = tested on: HOP-92
786-0 = tested on: 786-0
CAKI-1 = tested on: CAKI-1
OVCAR-5 = tested on: OVCAR-5
SW-620 = tested on: SW-620
SK-MEL-5 = tested on: SK-MEL-5
M19-MEL = tested on: M19-MEL
HCC 2998 = tested on: HCC 2998
DMS-114 = tested on: DMS-114
HT-29 = tested on: HT-29
DMS-273 = tested on: DMS-273
SK-OV-3 = tested on: SK-OV-3
HCT-116 = tested on: HCT-116
NCI-H522 = tested on: NCI-H522
DLD-1 = tested on: DLD-1
ACHN = tested on: ACHN
Malme-3M = tested on: Malme-3M
K562 = tested on: K562
LOX IMVI = tested on: LOX IMVI
SNB-78 = tested on: SNB-78
OVCAR-4 = tested on: OVCAR-4
SF-268 = tested on: SF-268
OVCAR-3 = tested on: OVCAR-3
MOLT-4 = tested on: MOLT-4
UACC-257 = tested on: UACC-257
RPMI-8226 = tested on: RPMI-8226
HCT-15 = tested on: HCT-15
KM-20L2 = tested on: KM-20L2
A498 = tested on: A498
HL-60 = tested on: HL-60
HOP-18 = tested on: HOP-18

SMILES: CCN(CC)CCCn1cnc2ncccc2c1=O
- GI50 (UACC-62): > 100 µM (inactive)
- GI50 (NCI-H23): > 100 µM (inactive)
- GI50 (CCRF-CEM): > 100 µM (inactive)
- GI50 (SK-MEL-28): > 100 µM (inactive)
- GI50 (LXFL 529): > 100 µM (inactive)
- GI50 (RXF 393): > 100 µM (inactive)
- GI50 (A549): > 100 µM (inactive)
- GI50 (SNB-19): > 100 µM (inactive)
- GI50 (NCI-H226): > 100 µM (inactive)
- GI50 (SR): > 100 µM (inactive)
- GI50 (COLO 205): > 100 µM (inactive)
- GI50 (M14): > 100 µM (inactive)
- GI50 (KM12): > 100 µM (inactive)
- GI50 (SK-MEL-2): > 100 µM (inactive)
- GI50 (SF-295): > 100 µM (inactive)
- GI50 (TK-10): > 100 µM (inactive)
- GI50 (SNB-75): > 100 µM (inactive)
- GI50 (IGROV-1): > 100 µM (inactive)
- GI50 (U-251): > 100 µM (inactive)
- GI50 (SN12C): > 100 µM (inactive)
- GI50 (HOP-62): > 100 µM (inactive)
- GI50 (UO-31): > 100 µM (inactive)
- GI50 (OVCAR-8): > 100 µM (inactive)
- GI50 (NCI-H460): > 100 µM (inactive)
- GI50 (EKVX): > 100 µM (inactive)
- GI50 (SF-539): > 100 µM (inactive)
- GI50 (HOP-92): > 100 µM (inactive)
- GI50 (786-0): > 100 µM (inactive)
- GI50 (CAKI-1): > 100 µM (inactive)
- GI50 (OVCAR-5): > 100 µM (inactive)
- GI50 (SW-620): > 100 µM (inactive)
- GI50 (SK-MEL-5): > 100 µM (inactive)
- GI50 (M19-MEL): > 100 µM (inactive)
- GI50 (HCC 2998): > 10 µM (inactive)
- GI50 (DMS-114): > 100 µM (inactive)
- GI50 (HT-29): > 100 µM (inactive)
- GI50 (DMS-273): > 100 µM (inactive)
- GI50 (SK-OV-3): > 100 µM (inactive)
- GI50 (HCT-116): > 100 µM (inactive)
- GI50 (NCI-H522): > 100 µM (inactive)
- GI50 (DLD-1): > 100 µM (inactive)
- GI50 (ACHN): > 100 µM (inactive)
- GI50 (Malme-3M): > 100 µM (inactive)
- GI50 (K562): > 100 µM (inactive)
- GI50 (LOX IMVI): > 100 µM (inactive)
- GI50 (SNB-78): > 100 µM (inactive)
- GI50 (OVCAR-4): > 100 µM (inactive)
- GI50 (SF-268): > 100 µM (inactive)
- GI50 (OVCAR-3): > 100 µM (inactive)

SMILES: COc1ccc(-c2c(C3=NCCCN3)nnn2-c2ccc([N+](=O)[O-])cc2)cc1
- GI50 (UACC-62): > 100 µM (inactive)
- GI50 (NCI-H23): > 100 µM (inactive)
- GI50 (CCRF-CEM): > 100 µM (inactive)
- GI50 (SK-MEL-28): > 100 µM (inactive)
- GI50 (LXFL 529): > 100 µM (inactive)
- GI50 (MOLT-4): > 100 µM (inactive)
- GI50 (UACC-257): > 100 µM (inactive)
- GI50 (RXF 393): > 100 µM (inactive)
- GI50 (A549): > 100 µM (inactive)
- GI50 (SNB-19): > 100 µM (inactive)
- GI50 (NCI-H226): > 100 µM (inactive)
- GI50 (SR): > 100 µM (inactive)
- GI50 (COLO 205): > 100 µM (inactive)
- GI50 (M14): > 100 µM (inactive)
- GI50 (KM12): > 100 µM (inactive)
- GI50 (SK-MEL-2): > 100 µM (inactive)
- GI50 (RPMI-8226): > 100 µM (inactive)
- GI50 (SF-295): > 100 µM (inactive)
- GI50 (TK-10): > 100 µM (inactive)
- GI50 (SNB-75): > 100 µM (inactive)
- GI50 (IGROV-1): > 100 µM (inactive)
- GI50 (U-251): > 100 µM (inactive)
- GI50 (SN12C): > 100 µM (inactive)
- GI50 (HOP-62): > 100 µM (inactive)
- GI50 (UO-31): > 100 µM (inactive)
- GI50 (OVCAR-8): > 100 µM (inactive)
- GI50 (NCI-H460): > 100 µM (inactive)
- GI50 (EKVX): > 100 µM (inactive)
- GI50 (SF-539): > 100 µM (inactive)
- GI50 (HOP-92): > 100 µM (inactive)
- GI50 (HCT-15): > 100 µM
- GI50 (786-0): > 100 µM (inactive)
- GI50 (CAKI-1): > 100 µM (inactive)
- GI50 (KM-20L2): > 100 µM (inactive)
- GI50 (A498): > 100 µM (inactive)
- GI50 (HL-60): > 100 µM (inactive)
- GI50 (OVCAR-5): > 100 µM (inactive)
- GI50 (SW-620): > 100 µM (inactive)
- GI50 (SK-MEL-5): > 100 µM (inactive)
- GI50 (M19-MEL): > 100 µM (inactive)
- GI50 (HCC 2998): > 100 µM (inactive)
- GI50 (DMS-114): > 100 µM (inactive)
- GI50 (HT-29): > 100 µM (inactive)
- GI50 (DMS-273): > 100 µM (inactive)
- GI50 (SK-OV-3): 34.8 µM (inactive)
- GI50 (HCT-116): > 100 µM (inactive)
- GI50 (NCI-H522): > 100 µM (inactive)
- GI50 (HOP-18): > 100 µM (inactive)
- GI50 (DLD-1): > 100 µM (inactive)
- GI50 (ACHN): > 100 µM (inactive)
- GI50 (Malme-3M): > 100 µM (inactive)
- GI50 (K562): > 100 µM (inactive)
- GI50 (LOX IMVI): > 100 µM (inactive)
- GI50 (SNB-78): > 100 µM (inactive)
- GI50 (OVCAR-4): > 100 µM (inactive)
- GI50 (SF-268): > 100 µM (inactive)
- GI50 (OVCAR-3): > 100 µM (inactive)
